Experimental data: patent US6297247A, “Sulfonamide inhibitors of matrix metalloproteinases” (priority 2000, dated 2001)
Counter-ions that a name gives are not always drawn.

Columns and labels:
[1] = molecular target: GCD (recombinant gelatinase A catalytic domain); assay: Inhibition of recombinant gelatinase A catalytic domain (GCD), thiopeptolide substrate; assay type: biochemical; settings: thiopeptolide substrate Ac-Pro-Leu-Gly-thioester-Leu-Leu-Gly-OEt
[2] = molecular target: T1, SCD (stromelysin-1 catalytic domain) (Homo sapiens, UniProt P08254); assay: Inhibition of stromelysin-1 catalytic domain (SCD), thiopeptolide substrate; assay type: biochemical; settings: thiopeptolide substrate Ac-Pro-Leu-Gly-thioester-Leu-Leu-Gly-OEt
T1 construct: SCD (stromelysin-1 catalytic domain)
T1 sequence (P08254 100-272 limits assumed): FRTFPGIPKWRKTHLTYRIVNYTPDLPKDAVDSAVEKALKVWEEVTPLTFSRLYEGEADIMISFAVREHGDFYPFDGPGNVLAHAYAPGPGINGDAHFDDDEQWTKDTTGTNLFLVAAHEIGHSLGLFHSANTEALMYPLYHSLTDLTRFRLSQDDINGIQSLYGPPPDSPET
Description: IC50 values were determined using a thiopeptolide substrate, Ac-Pro-Leu-Gly-thioester-Leu-Leu-Gly-OEt (Ye Q.-Z., Johnson L. L., Hupe D. J. and Baragi V., "Purification and Characterization of the Human Stromelysin Catalytic Domain Expressed in Escherichia coli", Biochemistry,1992;31:11231-11235).

[3] = tested on: experimental allergic encephalomyelitis (EAE); settings: in vivo; cited from earlier work
bovine nasal cartilage = settings: cited from earlier work
pig articular cartilage = settings: cited from earlier work

| Molecule | IC50 [1] [µM] | IC50 [2] [µM] | development or clinical expression of EAE [3] | formation of collagen fragments and proteoglycan fragments (bovine nasal cartilage) | formation of collagen fragments and proteoglycan fragments (pig articular cartilage) |
| --- | --- | --- | --- | --- | --- |
| O=C(O)C(CCCc1ccccc1)NS(=O)(=O)c1ccc(N2CCC(c3ccccc3)CC2)cc1 (racemic) [Example 9, (±)-5-Phenyl-2-[4-(4-phenyl-piperidin-1-yl)-benzenesulfonylamino]-pentanoic acid] | 0.4 | 0.3 | – | – | – |
| O=C(O)CNS(=O)(=O)c1ccc(N2CCC(c3ccccc3)CC2)cc1 [Example 1, [4-(4-Phenyl-piperidin-1-yl)-benzenesulfonylamino]-acetic acid] | 0.21 | – | – | – | – |
| O=C(CNS(=O)(=O)c1ccc(N2CCC(c3ccccc3)CC2)cc1)NO [Example 2, N-Hydroxy-2-[4-(4-phenyl-piperidin-1-yl)-benzenesulfonylamino]-acetamide] | 0.81 | – | – | – | – |
| O=C(O)CCNS(=O)(=O)c1ccc(N2CCC(c3ccccc3)CC2)cc1 [Example 3, 3-[4-(4-Phenyl-piperidin-1-yl)-benzenesulfonylamino]-propionic acid] | 4.8 | 1.24 | – | – | – |
| CC(C)C[C@@H](NS(=O)(=O)c1ccc(N2CCC(c3ccccc3)CC2)cc1)C(=O)O [Example 4, (R)-4-Methyl-2-[4-(4-phenyl-piperidin-1-yl)-benzenesulfonylamino]-pentanoic acid] | 0.93 | 0.036 | – | – | – |
| CC(C)C[C@H](NS(=O)(=O)c1ccc(N2CCC(c3ccccc3)CC2)cc1)C(=O)O [Example 5, (S)-4-Methyl-2-[4-(4-phenyl-piperidin-1-yl)-benzenesulfonylamino]-pentanoic acid] | 0.084 | 0.011 | – | – | – |
| O=C(O)[C@H](Cc1ccccc1)NS(=O)(=O)c1ccc(N2CCC(c3ccccc3)CC2)cc1 [Example 6, (S)-3-Phenyl-2-[4-(4-phenyl-piperidin-1-yl)-benzenesulfonylamino]-propionic acid] | 0.22 | – | – | – | – |
| O=C(O)[C@@H](Cc1ccccc1)NS(=O)(=O)c1ccc(N2CCC(c3ccccc3)CC2)cc1 [Example 7, (R)-3-Phenyl-2-[4-(4-phenyl-piperidin-1-yl)-benzenesulfonylamino]-propionic acid] | 0.12 | 0.012 | – | – | – |
| O=C(O)[C@H](Cc1c[nH]c2ccccc12)NS(=O)(=O)c1ccc(N2CCC(c3ccccc3)CC2)cc1 [Example 8, (S)-3-(1H-Indol-3-yl)-2-[4-(4-phenyl-piperidin-1-yl)-benzenesulfonylamino]-propionic acid] | 0.32 | 0.01 | – | – | – |
| O=C(O)CNS(=O)(=O)c1ccc(N2CCN(c3ccccc3)CC2)cc1 [Example 10, [4-(4-Phenyl-piperazin-1-yl)-benzenesulfonylamino]-acetic acid] | 0.5 | 0.05 | – | – | – |
| CC(C)CN(CC(=O)O)S(=O)(=O)c1ccc(N2CCC(c3ccccc3)CC2)cc1 [Example 11, {Isobutyl-[4-(4-phenyl-piperidin-1-yl)-benzenesulfonyl]amino}-acetic acid] | 3.3 | 0.17 | – | – | – |
| O=C(O)[C@H](Cc1ccccc1)NS(=O)(=O)c1ccc(N2CCC(Cc3ccccc3)CC2)cc1 [Example 12, (S)-2-[4-(4-Benzyl-piperidin-1-yl)-benzenesulfonylamino]-3-phenyl-propionicacid] | 3.2 | 0.6 | – | – | – |
| CNC(=O)[C@H](Cc1c[nH]c2ccccc12)NC(=O)[C@@H](CC(=O)NO)CC(C)C [GM6001] | – | – | suppressed the development or reversed the clinical expression of experimental allergic encephalomyelitis (EAE) in a dose dependent manner | – | – |
| TIMP-1: natural endogenous inhibitors of MMPs (TIMPS) | – | – | – | prevented the formation of collagen fragments, but not proteoglycan fragments | prevented the formation of collagen fragments, but not proteoglycan fragments |

Second part, led by results:

| IC50 [1] [µM] | IC50 [2] [µM] | Molecule | development or clinical expression of EAE [3] | formation of collagen fragments and proteoglycan fragments (bovine nasal cartilage) | formation of collagen fragments and proteoglycan fragments (pig articular cartilage) |
| --- | --- | --- | --- | --- | --- |
| 5.3 | 0.19 | O=C(O)[C@H](Cc1ccc(OCc2ccccc2)cc1)NS(=O)(=O)c1ccc(N2CCC(c3ccccc3)CC2)cc1 [Example 13, (S)-3-(4-Benzyloxy-phenyl)-2-[4-(4-phenyl-piperidin-1-yl)-benzenesulfonylamino]-propionic acid] | – | – | – |
| 0.13 | 0.015 | O=C(O)[C@H](Cc1ccc(O)cc1)NS(=O)(=O)c1ccc(N2CCC(c3ccccc3)CC2)cc1 [Example 14, (S)-3-(4-Hydroxy-phenyl)-2-[4-(4-phenyl-piperidin-1-yl)-benzenesulfonylamino]-propionic acid] | – | – | – |
| 0.088 | 0.021 | O=C(O)[C@H](Cc1ccccc1)NS(=O)(=O)c1ccc(N2CCN(c3ccccc3)CC2)cc1 [Example 15, (S)-3-Phenyl-2-[4-(4-phenyl-piperazin-1-yl)-benzenesulfonylamino]-propionicacid] | – | – | – |
| 0.33 | 0.062 | COc1cccc(N2CCN(c3ccc(S(=O)(=O)N[C@@H](Cc4ccccc4)C(=O)O)cc3)CC2)c1 [Example 16, (S)-2-{4-[-4-(3-Methoxy-phenyl)-piperazin-1-yl]-benzenesulfonylamino}-3-phenyl-propionic acid] | – | – | – |
| 0.18 | 0.077 | O=C(O)[C@H](Cc1ccccc1)NS(=O)(=O)c1ccc(N2CCN(c3cccc(O)c3)CC2)cc1 [Example 17, (S)-2-{4-[-4-(3-Hydroxy-phenyl)-piperazin-1-yl]-benzenesulfonylamino}-3-phenyl-propionic acid hydrobromide] | – | – | – |
| 0.033 | – | COc1ccc(N2CCN(c3ccc(S(=O)(=O)N[C@@H](Cc4ccccc4)C(=O)O)cc3)CC2)cc1 [Example 18, (S)-2-{4-[-4-(4-Methoxy-phenyl)-piperazin-1-yl]-benzenesulfonylamino}-3-phenyl-propionic acid] | – | – | – |
